Assay results as given in patent US20140051679A1, “KINASE INHIBITORS AND METHOD OF TREATING CANCER WITH SAME” (UNIVERISTY HEALTH NETWORKS, priority 2011, published 2014).

Columns and labels:
human PLK4 = molecular target: T1, human PLK4 (Homo sapiens, UniProt O00444); test: PLK4 inhibition assay (indirect ELISA); type: biochemical; conditions: GST-PLK4 4 nM, 15 μM ATP; read-out: IC50 Ranges PLK4
T1 construct: amino terminal GST fusion of residues 1-391 of human PLK4; made in house; host or cells: E. coli
T1 sequence (O00444 1-391): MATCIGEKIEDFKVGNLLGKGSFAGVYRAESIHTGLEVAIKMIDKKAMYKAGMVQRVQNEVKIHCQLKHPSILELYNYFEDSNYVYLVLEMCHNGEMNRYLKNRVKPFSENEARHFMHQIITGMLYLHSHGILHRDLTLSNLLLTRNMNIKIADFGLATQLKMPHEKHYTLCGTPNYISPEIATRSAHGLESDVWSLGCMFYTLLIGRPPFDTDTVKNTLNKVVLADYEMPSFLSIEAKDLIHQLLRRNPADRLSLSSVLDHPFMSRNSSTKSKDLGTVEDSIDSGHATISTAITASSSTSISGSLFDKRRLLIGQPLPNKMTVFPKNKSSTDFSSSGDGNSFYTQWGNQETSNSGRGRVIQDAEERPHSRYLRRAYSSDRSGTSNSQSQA
Summary of the method: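 Compounds were tested either at a single 10 μM dose or across 10-point titrations (typically 0.5 to 0.001 μM), preincubated 15 min with 4 nM GST-PLK4 (human 1-391, dephosphorylated) before 15 μM ATP was added. MBP substrate phosphorylation over 30 min, pH 7.5 HEPES/MgCl2 buffer, read by HRP/TMB ELISA (450 nm). % inhibition vs. high-activity control; IC50 by logistic fit.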

[1] = tested on: HCT116 colon cancer cells; test: Cell growth inhibition, Sulforhodamine B assay, HCT116; type: cell-based; conditions: Homo sapiens, HCT-116, 120 h, 5 days culture, SRB assay, read-out: Cell Line GI50 Range HCT116
[2] = tested on: MDA-MB-468 breast cancer cells; test: Cell growth inhibition, Sulforhodamine B assay, MDA-MB-468; type: cell-based; conditions: Homo sapiens, 120 h, 5 days culture, SRB assay, read-out: Cell Line GI50 Range MDA-MB-468
Aurora B = molecular target: T2, Aurora B (Homo sapiens, UniProt Q96GD4); test: Aurora B inhibition assay (Z-Lyte); type: biochemical; conditions: 28 nM Aurora B, 128 μM ATP; read-out: IC50 Ranges Aurora B
T2 construct: purchased Invitrogen PV3970
Method: Aurora B inhibition was determined using the Z-Lyte assay kit from Invitrogen. The assay was performed using the recommended manufacturer's instructions with 128 μM ATP and 28 nM Aurora B (Invitrogen cat #PV3970). The % inhibition values were determined according to the manufacturer's directions and IC50 values were obtained using a non-linear 4 point logistic curve fit (XLfit4, IDBS)

human TTK = molecular target: T3, human TTK (Homo sapiens, UniProt P33981); test: TTK inhibition assay (indirect ELISA); type: biochemical; conditions: GST-TTK 0.68 nM, 16 μM ATP; read-out: IC50 Ranges TTK
T3 construct: amino terminal GST fusion of full length human TTK; purchased Invitrogen
T3 sequence (P33981 1-857): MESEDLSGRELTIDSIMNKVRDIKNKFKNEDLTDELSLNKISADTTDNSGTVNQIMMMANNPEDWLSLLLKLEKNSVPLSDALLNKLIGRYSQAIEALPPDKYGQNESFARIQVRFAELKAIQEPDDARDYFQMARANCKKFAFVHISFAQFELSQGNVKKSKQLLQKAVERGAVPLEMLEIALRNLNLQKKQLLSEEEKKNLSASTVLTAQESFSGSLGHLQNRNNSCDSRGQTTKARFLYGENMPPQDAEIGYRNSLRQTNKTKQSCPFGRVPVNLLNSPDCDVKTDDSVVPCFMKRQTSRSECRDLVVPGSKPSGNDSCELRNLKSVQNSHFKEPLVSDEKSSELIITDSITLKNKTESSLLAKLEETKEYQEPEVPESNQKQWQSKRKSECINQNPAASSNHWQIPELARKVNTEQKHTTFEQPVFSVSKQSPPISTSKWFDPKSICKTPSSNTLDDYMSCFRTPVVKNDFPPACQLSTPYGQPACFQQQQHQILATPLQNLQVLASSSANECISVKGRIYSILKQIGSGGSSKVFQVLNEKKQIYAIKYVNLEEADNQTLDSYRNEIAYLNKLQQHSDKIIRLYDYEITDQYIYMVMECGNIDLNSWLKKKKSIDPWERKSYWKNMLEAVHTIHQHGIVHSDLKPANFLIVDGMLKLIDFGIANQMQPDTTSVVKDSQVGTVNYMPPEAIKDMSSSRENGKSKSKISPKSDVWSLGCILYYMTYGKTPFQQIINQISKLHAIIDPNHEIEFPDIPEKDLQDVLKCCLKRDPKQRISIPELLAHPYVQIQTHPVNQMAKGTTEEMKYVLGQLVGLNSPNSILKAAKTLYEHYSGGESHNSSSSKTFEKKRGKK

[3] = tested on: PA-1 ovarian cancer cells; test: Cell growth inhibition, Sulforhodamine B assay, PA-1; type: cell-based; conditions: 120 h, 5 days culture, SRB assay, read-out: Cell Line GI50 Range PA-1
[4] = tested on: MDA-MB-231 breast cancer cells; test: Cell growth inhibition, Sulforhodamine B assay, MDA-MB-231; type: cell-based; conditions: Homo sapiens, 120 h, 5 days culture, SRB assay, read-out: Cell Line GI50 Range MDA-MB-231
[5] = tested on: OVCAR-3 ovarian cancer cells; test: Cell growth inhibition, Sulforhodamine B assay, OVCAR-3; type: cell-based; conditions: Homo sapiens, 120 h, 5 days culture, SRB assay, read-out: Cell Line GI50 Range OVCAR-3
HT29 colon cancer cells = test: Cell growth inhibition, Sulforhodamine B assay, HT29; type: cell-based; conditions: Homo sapiens, HT-29, 120 h, 5 days culture, SRB assay, read-out: Cell Line GI50 Range HT29
Method: Breast cancer cells (MDA-MB-231, MDA-MB-468), colon cancer cells (HCT116, HT29) and ovarian cancer cells (PA-1, OVCAR-3) were seeded (1000 to 4000 in 80 μl per well depending on the cell growth rate) into 96 well plates 24 hours before compound overlay. Compounds were prepared as 10 mM stock solutions in 100% DMSO which were diluted with DMEM (Dulbecco's Modified Eagle's Medium) cell growth Medium (Invitrogen, Burlington, ON, Canada) containing 10% FBS (Fetal Bovine Serum) to concentrations ranging from 50 nM to 250 μM. Aliquots (20 μl) from each concentration were overlaid to 80 μl of the pre-seeded cells in the 96 well plates to make final concentrations of 10 nM to 50 μM. The cells were cultured for 5 days before the Sulforhodamine B assay (SRB) was performed to determine the compound's cell growth inhibition activity.
Sulforhodamine B (purchased from Sigma, Oakville, ON, Canada) is a water-soluble dye that binds to the basic amino acids of the cellular proteins. Thus, colorimetric measurement of the bound dye provides an estimate of the total protein mass that is related to the cell number. the cells are fixed in situ by gently aspirating off the culture media and adding 50 μl ice cold 10% Trichloroacetic Acid (TCA) per well and incubate at 4° C. for 30-60 min, The plates are washed with water five times and allowed to air dry for 5 min. Addition of 50 μl 0.4% (w/v) SRB solution in 1% (v/v) acetic acid to each well and incubatation for 30 min at RT completes the staining reaction. Following staining, plates are washed four times with 1% acetic acid to remove unbound dye and then allowed to air dry for 5 min. The stain is solubilized with 100 μl of 10 mM Tris pH 10.5 per well. Absorbance is read at 570 nm.
The percentage (%) of relative growth inhibition was calculated by comparing to DMSO treated only cells (100%). […] The GI50 was calculated using GraphPad PRISM software (GraphPad Software, Inc., San Diego, Calif., USA).

T2 sequence (Q96GD4 whole entry): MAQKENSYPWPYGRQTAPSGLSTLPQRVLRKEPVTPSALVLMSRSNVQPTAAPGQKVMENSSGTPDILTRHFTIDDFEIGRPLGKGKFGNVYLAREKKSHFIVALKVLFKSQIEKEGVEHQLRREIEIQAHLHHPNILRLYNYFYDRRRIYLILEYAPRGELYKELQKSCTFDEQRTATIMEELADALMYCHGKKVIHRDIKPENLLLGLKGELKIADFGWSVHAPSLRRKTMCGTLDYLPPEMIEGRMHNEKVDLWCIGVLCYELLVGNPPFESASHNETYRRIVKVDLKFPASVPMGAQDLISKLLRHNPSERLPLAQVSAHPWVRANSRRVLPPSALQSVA

`O=C(NC(c1ccsc1)C1CCC1)c1ccc2[nH]nc(-c3ccc(N4CCOCC4)cc3)c2c1` (centres unmarked) [Example A123, N-(cyclobutyl(thiophen-3-yl)methyl)-3-(4-morpholinophenyl)-1H-indazole-5-carboxamide] was tested, and the IC50 (human PLK4) was ≤ 5 µM, the GI50 [1] was ≤ 5 µM and the GI50 [2] was ≤ 5 µM. For the same compound, the IC50 (Aurora B) was ≤ 5 µM, the IC50 (human TTK) was ≤ 5 µM and the GI50 [3] was ≤ 5 µM.
For `COc1cc(-c2n[nH]c3ccc(C(=O)NC(c4ccccc4)C4CC4)cc23)ccc1OC1CCN(C=O)CC1` (centres unmarked) [Example A205, N-(cyclopropyl(phenyl)methyl)-3-(4-((1-formylpiperidin-4-yl)oxy)-3-methoxyphenyl)-1H-indazole-5-carboxamide], the IC50 (human PLK4) was ≤ 5 µM, the GI50 [1] was ≤ 5 µM and the GI50 [2] was ≤ 5 µM. For the same compound, the IC50 (Aurora B) was ≤ 5 µM, the IC50 (human TTK) was ≤ 5 µM and the GI50 [3] was ≤ 5 µM.
For `O=C(Nc1ccc2[nH]nc(-c3ccc(N4CCC(O)CC4)cc3)c2c1)C(c1ccsc1)N1CCC1` (centres unmarked) [Example A200, 2-(azetidin-1-yl)-N-(3-(4-(4-hydroxypiperidin-1-yl)phenyl)-1H-indazol-5-yl)-2-(thiophen-3-yl)acetamide], the IC50 (human PLK4) was ≤ 5 µM, the GI50 [1] was ≤ 5 µM and the GI50 [2] was ≤ 5 µM. For the same compound, the IC50 (Aurora B) was ≤ 5 µM, the IC50 (human TTK) was ≤ 5 µM and the GI50 [3] was ≤ 5 µM.
For `O=C(N[C@@H](c1ccccn1)C1CC1)c1ccc2[nH]nc(-c3ccc(OC4CCN(C5COC5)CC4)cc3)c2c1` [Example A196, (R)—N-(cyclopropyl(pyridin-2-yl)methyl)-3-(4-((1-(oxetan-3-yl)piperidin-4-yl)oxy)phenyl)-1H-indazole-5-carboxamide], the IC50 (human PLK4) was ≤ 5 µM, the GI50 [1] was ≤ 5 µM and the GI50 [2] was ≤ 5 µM. The IC50 (Aurora B) was ≤ 5 µM, the IC50 (human TTK) was ≤ 5 µM and the GI50 [3] was ≤ 5 µM.
`C[C@H](NC(=O)c1ccc2[nH]nc(-c3ccc(OC4CCN(C)CC4)cc3)c2c1)C1CCCCC1` [Example A38, (S)—N-(1-cyclohexylethyl)-3-(4-((1-methylpiperidin-4-yl)oxy)phenyl)-1H-indazole-5-carboxamide] was tested, and the IC50 (human PLK4) was ≤ 5 µM, the GI50 [4] was ≤ 5 µM and the GI50 [1] was ≤ 5 µM. The GI50 [5] was ≤ 5 µM, the GI50 [2] was ≤ 5 µM and the IC50 (Aurora B) was ≤ 5 µM. For the same compound, the IC50 (human TTK) was ≤ 5 µM and the GI50 (HT29 colon cancer cells) was ≤ 5 µM.
In the case of `O=C(Nc1ccc2[nH]nc(-c3ccc(OC4CCNCC4)c(Cl)c3)c2c1)C(c1ccsc1)N1CCCC1` (centres unmarked) [Example A34, N-(3-(3-chloro-4-(piperidin-4-yloxy)phenyl)-1H-indazol-5-yl)-2-(pyrrolidin-1-yl)-2-(thiophen-3-yl)acetamide], the IC50 (human PLK4) is reported as ≤ 5 µM, the GI50 [4] is reported as ≤ 5 µM and the GI50 [1] is reported as ≤ 5 µM. The GI50 [5] was ≤ 5 µM, the GI50 [2] was ≤ 5 µM and the IC50 (Aurora B) was ≤ 5 µM. The IC50 (human TTK) was ≤ 5 µM and the GI50 (HT29 colon cancer cells) was ≤ 5 µM.
For `CC[C@@H](NC(=O)c1ccc2[nH]nc(-c3ccc(OC4CCN(C)CC4)cc3)c2c1)c1cccs1` [Example A63, (R)-3-(4-((1-methylpiperidin-4-yl)oxy)phenyl)-N-(1-(thiophen-2-yl)propyl)-1H-indazole-5-carboxamide], the IC50 (human PLK4) was ≤ 5 µM, the GI50 [4] was ≤ 5 µM and the GI50 [1] was ≤ 5 µM. The GI50 [5] was ≤ 5 µM, the GI50 [2] was ≤ 5 µM and the IC50 (Aurora B) was ≤ 5 µM. For the same compound, the IC50 (human TTK) was ≤ 5 µM and the GI50 (HT29 colon cancer cells) was ≤ 5 µM.
With `O=C(Nc1ccc2[nH]nc(-c3ccc(OCCCN4CCOCC4)cc3)c2c1)C(c1ccsc1)N1CCCC1` (centres unmarked) [Example A45, N-(3-(4-(3-morpholinopropoxy)phenyl)-1H-indazol-5-yl)-2-(pyrrolidin-1-yl)-2-(thiophen-3-yl)acetamide] the IC50 (human PLK4) was ≤ 5 µM, the GI50 [4] was ≤ 5 µM and the GI50 [1] was ≤ 5 µM. For the same compound, the GI50 [5] was 5 to 20 µM, the GI50 [2] was ≤ 5 µM and the IC50 (Aurora B) was ≤ 5 µM. The IC50 (human TTK) was ≤ 5 µM and the GI50 (HT29 colon cancer cells) was ≤ 5 µM.
With `CN1CCC(Oc2ccc(-c3n[nH]c4ccc(NC(=O)C(c5ccsc5)C5CCCC5)cc34)cc2)CC1` (centres unmarked) [Example A36, 2-cyclopentyl-N-(3-(4-((1-methylpiperidin-4-yl)oxy)phenyl)-1H-indazol-5-yl)-2-(thiophen-3-yl)acetamide] the IC50 (human PLK4) was ≤ 5 µM, the GI50 [4] was ≤ 5 µM and the GI50 [1] was ≤ 5 µM. The GI50 [5] was ≤ 5 µM, the GI50 [2] was ≤ 5 µM and the IC50 (Aurora B) was ≤ 5 µM. The IC50 (human TTK) was ≤ 5 µM and the GI50 (HT29 colon cancer cells) was ≤ 5 µM.
`CC[C@@H](NC(=O)c1ccc2[nH]nc(-c3ccc(N4CCOCC4)cc3)c2c1)c1cccs1` [Example A58, (R)-3-(4-morpholinophenyl)-N-(1-(thiophen-2-yl)propyl)-1H-indazole-5-carboxamide] was tested, and the IC50 (human PLK4) was ≤ 5 µM, the GI50 [4] was ≤ 5 µM and the GI50 [1] was ≤ 5 µM. The GI50 [5] was ≤ 5 µM, the GI50 [2] was ≤ 5 µM and the IC50 (Aurora B) was ≤ 5 µM. For the same compound, the IC50 (human TTK) was ≤ 5 µM and the GI50 (HT29 colon cancer cells) was ≤ 5 µM.
`C[C@@H](NC(=O)c1ccc2[nH]nc(-c3ccc(OC4CCN(C)CC4)cc3)c2c1)c1cccs1` [Example A55, (R)-3-(4-((1-methylpiperidin-4-yl)oxy)phenyl)-N-(1-(thiophen-2-yl)ethyl)-1H-indazole-5-carboxamide] was tested, and the IC50 (human PLK4) was ≤ 5 µM, the GI50 [4] was ≤ 5 µM and the GI50 [1] was ≤ 5 µM. For the same compound, the GI50 [5] was ≤ 5 µM, the GI50 [2] was ≤ 5 µM and the IC50 (Aurora B) was ≤ 5 µM. For the same compound, the IC50 (human TTK) was ≤ 5 µM and the GI50 (HT29 colon cancer cells) was ≤ 5 µM.
For `CN(C)CCCOc1ccc(-c2n[nH]c3ccc(NC(=O)C(c4ccsc4)N4CCCC4)cc23)cc1` (centres unmarked) [Example A43, N-(3-(4-(3-(dimethylamino)propoxy)phenyl)-1H-indazol-5-yl)-2-(pyrrolidin-1-yl)-2-(thiophen-3-yl)acetamide], the IC50 (human PLK4) was ≤ 5 µM, the GI50 [4] was ≤ 5 µM and the GI50 [1] was ≤ 5 µM. The GI50 [5] was ≤ 5 µM, the GI50 [2] was ≤ 5 µM and the IC50 (Aurora B) was ≤ 5 µM. The IC50 (human TTK) was ≤ 5 µM and the GI50 (HT29 colon cancer cells) was ≤ 5 µM.
For `CCC(NC(=O)c1ccc2[nH]nc(-c3ccc(OC4CCN(C)CC4)cc3)c2c1)C1CCCCC1` (centres unmarked) [Example A69, N-(1-cyclohexylpropyl)-3-(4-((1-methylpiperidin-4-yl)oxy)phenyl)-1H-indazole-5-carboxamide], the IC50 (human PLK4) was ≤ 5 µM, the GI50 [4] was ≤ 5 µM and the GI50 [1] was ≤ 5 µM. For the same compound, the GI50 [5] was ≤ 5 µM, the GI50 [2] was ≤ 5 µM and the IC50 (Aurora B) was ≤ 5 µM. For the same compound, the IC50 (human TTK) was ≤ 5 µM and the GI50 (HT29 colon cancer cells) was ≤ 5 µM.
In the case of `O=C(Nc1ccc2[nH]nc(-c3ccc(OC4CCNCC4)cc3)c2c1)C(c1ccsc1)N1CCCC1` (centres unmarked) [Example A28, N-(3-(4-(piperidin-4-yloxy)phenyl)-1H-indazol-5-yl)-2-(pyrrolidin-1-yl)-2-(thiophen-3-yl)acetamide], the IC50 (human PLK4) is reported as ≤ 5 µM, the GI50 [4] is reported as ≤ 5 µM and the GI50 [1] is reported as ≤ 5 µM. For the same compound, the GI50 [5] was 5 to 20 µM, the GI50 [2] was ≤ 5 µM and the IC50 (Aurora B) was ≤ 5 µM. For the same compound, the IC50 (human TTK) was ≤ 5 µM and the GI50 (HT29 colon cancer cells) was ≤ 5 µM.
